Patent US20260335397A1, “TREATMENT OF GEOGRAPHIC ATROPHY” (Apellis Pharmaceuticals, Inc., priority 2022, published 2026)

How the values were obtained:
[1] = tested on: geographic atrophy (GA) secondary to age-related macular degeneration (AMD); test: Post hoc microperimetry perilesional analysis, OAKS study; type: in vivo, human; details: 24 months
Procedure: LS means estimated from MMRM analysis. […] Perilesional area defined as −250 μm inside baseline atrophy border to +250 μm outside atrophy border. dB=decibel; LS=least square; M=month; mITT=modified intent-to-treat; MMRM=mixed-effects model for repeated measures; PEOM=pegcetacoplan every other month; PM=pegcetacoplan monthly; SE=standard error.
A post hoc microperimetry perilesional analysis was performed on patients in the OAKS study to assess whether pegcetacoplan preservation of retinal tissue was reflected in preserved photoreceptor function in retina near GA lesion borders at baseline. Geographic atrophy lesion borders grow at approximately 100-150 microns per year. An assessment was performed of visual function of cells within 250 microns on either side of the lesion border, which are at the highest risk of permanently losing visual function as lesions expand. Reduction of retinal sensitivity as measured by microperimetry reflects loss of function.
Perilesional area (area within 250 microns of each side of GA lesion border) was created on fundus autofluorescence for each patient, and microperimetry endpoints were assessed within this region (68 spots on grid). In this analysis, approximately 21-22 points (out of 68 total—about one-third) qualified as “peri-lesional” using the 500 micron zone definition (250 inside and 250 outside of GA lesion border). A representative image is depicted as FIG. 5. […] Patients in both monthly (0.564 dB; p=0.0650) and every-other-month (EOM) (0.707 dB; p=0.0202) pegcetacoplan treatment groups lost less retinal sensitivity compared to the sham group over 24 months with increasing effects over time. Scotomatous points measure areas of the retina that have lost all light sensitivity and therefore are no longer functioning. Patients in both monthly (−0.680 points; p=0.1444) and EOM (−1.138 points; p=0.0140) pegcetacoplan treatment groups had fewer new scotomatous points compared to sham over 24 months with increasing effects over time.

[2] = tested on: geographic atrophy (GA) secondary to age-related macular degeneration (AMD); test: Post-hoc analysis of time to foveal light insensitivity, 4 central points of MAIA grid, OAKS study; type: in vivo, human
Procedure: This Example describes a post-hoc analysis of results from the OAKS study described in Example 1 that was performed in order to assess the effect of pegcetacoplan monthly (PM) or every other month (PEOM) vs sham treatment in delaying occurrence of foveal insensitivity measured by the 4 most centrally located stimulus points of the MAcular Integrity Assessment (MAIA) grid. Absolute scotomatous points of −1 dB were considered present when a reaction was not evoked by the brightest possible light stimulus.
Light insensitivity was defined as absence of response to −1 dB at the stimulus point. For the time-to-event analysis, a foveal light insensitivity event was defined as the first light insensitivity (−1 dB) occurring at all 4 central stimuli. Events were measured at the exact date of a patient visit and depicted via Kaplan-Meier plots. A Cox proportional hazards model was applied factoring treatment, choroidal neovascularisation in the fellow eye, baseline GA lesion area, and baseline number of central 4 scotomatous points (categorical). Hazard ratios (HRs) of PM and PEOM were estimated.

Poly(oxy-1,2-ethanediyl), α-hydro-ω-hydroxy-, 15,15′-diester with N-acetyl-L-isoleucyl-L-cysteinyl-L-valyl-1-methyl-L-tryptophyl-L-glutaminyl-L-α-aspartyl-L-tryptophylglycyl-L-alanyl-L-histidyl-L-arginyl-L-cysteinyl-L-threonyl-2-[2-(2-aminoethoxy)ethoxy]acetyl-N^6-carboxy-L-lysinamide cyclic (2->12)-(disulfide) [pegcetacoplan]
microperimetry measures, perilesional ([1]; all p-values nominal): positive trends in microperimetry measures | new scotomatous points (perilesional) compared to sham ([1]; EOM, p=0.0140 (nominal)): −1.138 points | less loss of retinal sensitivity (perilesional mean threshold sensitivity) compared to sham ([1]; every-other-month (EOM), p=0.0202 (nominal)): 0.707 dB | less loss of retinal sensitivity (perilesional mean threshold sensitivity) compared to sham ([1]; monthly, p=0.0650 (nominal)): 0.564 dB | new scotomatous points (perilesional) compared to sham ([1]; monthly, p=0.1444 (nominal)): −0.680 points | HR, occurrence of foveal light insensitivity vs sham ([2]; PEOM, 95% CI: 0.45, 0.92, p=0.0164): 0.64 | Conversion of all 4 central points to scotoma in the study eye, patients ([2]; PEOM, n=152, 24 months): 59 patients | Conversion of all 4 central points to scotoma in the study eye, percent of patients ([2]; PEOM, n=152, 24 months): 38.8% | onset of foveal light insensitivity / loss of foveal light sensitivity ([2]; PM and PEOM, twenty-four-month data): Meaningful delays in loss of foveal light sensitivity | HR, occurrence of foveal light insensitivity vs sham ([2]; PM, 95% CI: 0.46, 0.96, p=0.0282): 0.66 | Conversion of all 4 central points to scotoma in the study eye, patients ([2]; PM, n=155, 24 months): 54 patients | Conversion of all 4 central points to scotoma in the study eye, percent of patients ([2]; PM, n=155, 24 months): 34.8%
